From ChEMBL document CHEMBL1126400, “Synthesis and biological activity of the platelet-activating factor antagonist ()-trans-2-(3-methoxy-4-phenylsulfonylethoxy-5-n-propylsulfonylphenyl)-5-(3,4,5-trimethoxyphenyl)tetrahydrofuran (L-671,284) and its analogs” (Bioorg Med Chem Lett, 1992)
pIC50, pKi: −log10 of the molar value.

Experiments:
[1] = molecular target: Platelet-activating factor receptor (Rattus norvegicus) (UniProt P46002); experiment: In vivo inhibition of 10 nmole/kg PAF-induced plasma N-acetyl-beta-glucosaminidase (NAGA) after oral administration to rats; format: organism-based; set-up: concentration or dose not given beside the values
Platelet-activating factor receptor (Rattus norvegicus), sequence (P46002 whole entry): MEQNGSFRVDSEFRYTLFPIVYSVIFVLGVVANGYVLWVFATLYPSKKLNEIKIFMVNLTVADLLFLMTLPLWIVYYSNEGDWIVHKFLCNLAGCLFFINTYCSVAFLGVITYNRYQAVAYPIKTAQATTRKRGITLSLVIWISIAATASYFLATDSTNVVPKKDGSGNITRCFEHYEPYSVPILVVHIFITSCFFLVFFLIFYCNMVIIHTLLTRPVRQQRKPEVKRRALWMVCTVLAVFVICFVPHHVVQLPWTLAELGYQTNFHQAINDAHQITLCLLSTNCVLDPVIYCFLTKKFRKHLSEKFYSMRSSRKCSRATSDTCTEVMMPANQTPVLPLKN

[2] = molecular target: T1, Platelet-activating factor receptor (Homo sapiens, UniProt P25105); experiment: In vitro inhibition of [3H]-C18 PAF binding to human platelet membrane Platelet activating factor receptor.; set-up: concentration or dose not given beside the values; details: concentration not given here
T1 sequence (P25105 whole entry): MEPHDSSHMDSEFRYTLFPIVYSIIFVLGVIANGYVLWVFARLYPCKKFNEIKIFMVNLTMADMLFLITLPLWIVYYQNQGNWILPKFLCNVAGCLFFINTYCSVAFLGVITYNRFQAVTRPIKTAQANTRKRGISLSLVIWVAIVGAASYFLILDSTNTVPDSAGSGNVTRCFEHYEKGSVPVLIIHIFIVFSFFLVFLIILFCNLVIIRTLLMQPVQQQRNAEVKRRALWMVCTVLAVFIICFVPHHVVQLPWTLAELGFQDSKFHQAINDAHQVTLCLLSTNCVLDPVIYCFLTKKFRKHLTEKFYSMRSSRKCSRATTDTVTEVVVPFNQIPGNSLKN

Rattus norvegicus [3] = experiment: In vivo inhibition of 10 nmole/kg PAF-induced hemoconcentration was determined at 1 mg/kg peroral administration in rats; format: functional; details: route oral
[4] = molecular target: Platelet-activating factor receptor (Rattus norvegicus) (UniProt P46002); experiment: In vivo inhibition of 10 nmole/kg PAF-induced hemoconcentration was determined at 1 mg/kg peroral administration; format: functional, organism-based; set-up: dose 1 mg/kg
[5] = molecular target: T1, Platelet-activating factor receptor; experiment: In vitro inhibition of [3H]-C18 PAF binding to human platelet membrane Platelet activating factor receptor was determined
Rattus norvegicus [6] = experiment: Compound inhibits 10 nmole/kg PAF-induced hemoconcentration and plasma N-acetyl-beta-glucosaminidase increase in female rats; format: functional
[7] = molecular target: T1, Platelet-activating factor receptor; experiment: Compound was evaluated for inhibitory activity of binding of [3H]-C18 PAF to human platelet membrane Platelet activating factor receptor
Rattus norvegicus [8] = experiment: Compound inhibits 10 nmole/kg PAF-induced hemoconcentration and plasma N-acetyl-beta-glucosaminidase increase in male rats; format: functional
Rattus norvegicus [9] = experiment: Drop in blood pressure was observed after 15 minutes of intravenous administration of 0.2 mg/kg compound; format: functional
Homo sapiens = species on record: Homo sapiens; experiment: Inhibitory activity of compound was determined by 3E-7M PAF-induced degranulation of PAFas measured by myeloperoxidase secretion; format: functional
[10] = molecular target: T1, Platelet-activating factor receptor; experiment: Compound was evaluated for inhibition of binding of [3H]-C18 PAF to human platelet membrane Platelet activating factor receptor

Row | inhibition [1] | inhibition [2] | inhibition [4] | Compound | other results
1 | 4% | 80% | – | CCCS(=O)(=O)c1cc(C2CC[C@@H](c3cc(OC)c(OC)c(OC)c3)O2)cc(OC)c1OCCSc1cccc(N)c1 (some centres not stated) | inhibition in vivo at 1 mg/kg (Rattus norvegicus [3]): 7%
2 | 39% | 93% | 33% | CCCS(=O)(=O)c1cc(C2CC[C@@H](c3cc(OC)c(OC)c(OC)c3)O2)cc(OC)c1OCCSc1ccc(C#N)cc1 (some centres not stated) | –
3 | – | 57% | – | CCCS(=O)(=O)c1cc(C2CC[C@@H](c3cc(OC)c(OC)c(OC)c3)O2)cc(OC)c1OCCSc1ccccc1N (some centres not stated) | –
4 | 58% | 60% | – | CCCS(=O)(=O)c1cc(C2CC[C@@H](c3cc(OC)c(OC)c(OC)c3)O2)cc(OC)c1OCCSc1ccc(N)cc1 (some centres not stated) | inhibition in vivo at 1 mg/kg (Rattus norvegicus [3]): 56%
5 | 15% | 73% | 15% | CCCS(=O)(=O)c1cc(C2CC[C@@H](c3cc(OC)c(OC)c(OC)c3)O2)cc(OC)c1OCCSc1ccncc1 (some centres not stated) | –
6 | 29% | 61% | 27% | CCCS(=O)(=O)c1cc(C2CC[C@@H](c3cc(OC)c(OC)c(OC)c3)O2)cc(OC)c1OCCSc1cccc(O)c1 (some centres not stated) | –
7 | 84% | 93% | 95% | CCCS(=O)(=O)c1cc(C2CC[C@@H](c3cc(OC)c(OC)c(OC)c3)O2)cc(OC)c1OCCSc1ccccc1 (some centres not stated) | –
8 | 23% | 38% | 11% | CCCS(=O)(=O)c1cc(C2CC[C@@H](c3cc(OC)c(OC)c(OC)c3)O2)cc(OC)c1OCCSc1ccc(C(=O)O)cc1 (some centres not stated) | –
9 | 75% | 100% | 63% | CCCS(=O)(=O)c1cc(C2CC[C@@H](c3cc(OC)c(OC)c(OC)c3)O2)cc(OC)c1OCCSc1ccc(O)cc1 (some centres not stated) | –
10 | 57% | 66% | 66% | CCCS(=O)(=O)c1cc(C2CC[C@@H](c3cc(OC)c(OC)c(OC)c3)O2)cc(OC)c1OCCSc1ccc(N(C)C)cc1 (some centres not stated) | –
11 | 32% | 70% | 26% | CCCS(=O)(=O)c1cc(C2CC[C@@H](c3cc(OC)c(OC)c(OC)c3)O2)cc(OC)c1OCCSc1ccc(C(N)=O)cc1 (some centres not stated) | –
12 | – | 58% | – | CCCS(=O)(=O)c1cc(C2CC[C@@H](c3cc(OC)c(OC)c(OC)c3)O2)cc(OC)c1OCCSc1ccccc1O (some centres not stated) | –

More lines, now with the values behind:

Row | Compound | inhibition [1] | inhibition [2] | inhibition [4] | other results
13 | CCCS(=O)(=O)c1cc(C2CC[C@@H](c3cc(OC)c(OC)c(OC)c3)O2)cc(OC)c1OCC[S+]([O-])c1ccc(C#N)cc1 (some centres not stated) | 0% | 74% | 5% | –
14 | CCCS(=O)(=O)c1cc(C2CC[C@@H](c3cc(OC)c(OC)c(OC)c3)O2)cc(OC)c1OCCS(=O)(=O)c1ccncc1 (some centres not stated) | 5% | 45% | 0% | –
15 | CCCS(=O)(=O)c1cc(C2CC[C@@H](c3cc(OC)c(OC)c(OC)c3)O2)cc(OC)c1OCCSc1ncc[nH]1 (some centres not stated) | 13% | 60% | 11% | –
16 | CCCS(=O)(=O)c1cc(C2CC[C@@H](c3cc(OC)c(OC)c(OC)c3)O2)cc(OC)c1OCCS(=O)(=O)c1ccc(N)cc1 (some centres not stated) | – | 41% | – | –
17 | CCCS(=O)(=O)c1cc(C2CC[C@@H](c3cc(OC)c(OC)c(OC)c3)O2)cc(OC)c1OCCS(=O)(=O)c1ccc(O)cc1 (some centres not stated) | 13% | 88% | – | inhibition in vivo at 1 mg/kg (Rattus norvegicus [3]): 7%
18 | CCCS(=O)(=O)c1cc(C2CC[C@@H](c3cc(OC)c(OC)c(OC)c3)O2)cc(OC)c1OCC[S+]([O-])c1ccc(O)cc1 (some centres not stated) | 44% | 73% | – | inhibition in vivo at 1 mg/kg (Rattus norvegicus [3]): 25%
19 | CCCS(=O)(=O)c1cc(C2CC[C@@H](c3cc(OC)c(OC)c(OC)c3)O2)cc(OC)c1OCCS(=O)(=O)c1ccc(C#N)cc1 (some centres not stated) | 1% | 69% | 0% | –
20 | CCCOc1c(OC)cc([C@H]2CC[C@H](c3cc(OC)c(OC)c(OC)c3)O2)cc1S(C)(=O)=O (single isomer, unassigned) | – | – | – | pKi [5]: 7.84
21 | CCCS(=O)(=O)c1cc(C2CC[C@@H](c3cc(OC)c(OC)c(OC)c3)O2)cc(OC)c1OCC[S+]([O-])c1ccc(N)cc1 (some centres not stated) | – | 0% | – | –
22 | CCCS(=O)(=O)c1cc(C2CC[C@@H](c3cc(OC)c(OC)c(OC)c3)O2)cc(OC)c1OCCS(=O)(=O)c1ccccc1 (some centres not stated) | 94% | 72% | 94% | ED50 (Rattus norvegicus [6]): 0.22 mg/kg; pIC50 [7]: 9.00; ED50 (Rattus norvegicus [8]): 0.26 mg/kg; Decrease in blood pressure (Rattus norvegicus [9]): 79 mmHg; pIC50 (Homo sapiens): 9.11; pKi [10]: 9.00
